In the experiment the target is T1, LXRβ (Homo sapiens, UniProt P55055).
T1 construct: Co-transfection expression plasmids, comprising full-length LXRα (pCMX-h LXRα or LXRβ (pCMX-hLXRβ)); expressed in transfected cells; host or cells: CV-1 African green monkey kidney cells, transient transfection with pCMX-hLXRβ
T1 sequence (P55055 1-460): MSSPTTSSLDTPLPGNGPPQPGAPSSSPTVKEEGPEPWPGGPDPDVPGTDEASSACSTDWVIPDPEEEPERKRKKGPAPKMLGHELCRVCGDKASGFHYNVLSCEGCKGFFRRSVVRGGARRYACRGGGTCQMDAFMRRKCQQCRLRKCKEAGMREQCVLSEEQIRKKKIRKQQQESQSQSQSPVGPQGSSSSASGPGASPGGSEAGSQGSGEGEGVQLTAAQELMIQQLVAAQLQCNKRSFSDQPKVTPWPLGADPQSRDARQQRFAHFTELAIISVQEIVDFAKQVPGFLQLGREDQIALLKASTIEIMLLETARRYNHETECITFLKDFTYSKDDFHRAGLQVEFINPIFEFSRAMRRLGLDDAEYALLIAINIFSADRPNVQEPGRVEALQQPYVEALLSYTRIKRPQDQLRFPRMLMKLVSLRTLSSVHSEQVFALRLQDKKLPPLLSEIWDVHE
T1 sequence (P19793 1-462 partner): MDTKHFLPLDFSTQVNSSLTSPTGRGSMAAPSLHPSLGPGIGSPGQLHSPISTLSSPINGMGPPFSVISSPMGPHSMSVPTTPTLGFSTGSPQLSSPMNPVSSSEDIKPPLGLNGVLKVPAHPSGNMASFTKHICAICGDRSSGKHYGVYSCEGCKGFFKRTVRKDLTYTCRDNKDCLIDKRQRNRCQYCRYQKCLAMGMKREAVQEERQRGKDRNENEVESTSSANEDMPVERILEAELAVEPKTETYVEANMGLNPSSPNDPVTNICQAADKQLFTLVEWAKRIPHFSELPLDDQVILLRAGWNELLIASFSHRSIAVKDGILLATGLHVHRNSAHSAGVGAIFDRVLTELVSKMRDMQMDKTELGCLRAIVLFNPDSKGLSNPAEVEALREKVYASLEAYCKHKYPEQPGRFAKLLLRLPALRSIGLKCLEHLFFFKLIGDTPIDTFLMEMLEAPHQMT
Description: LXR/LXRE co-transfection assay (luciferase reporter) in CV-1 cells, LXRβ. It is filed as cell-based. The note with it: for EC50: CV-1 cells transfected with pCMX-hLXRβ and LXREx1-Tk-Luciferase, 20 hours incubation, read-out: LXRbeta agonism EC50; for Emax: read-out: LXRbeta % EFFICACY
Summed up:
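Luciferase read-out after 20 h compound treatment at 37 °C of CV-1 cells carrying transfected hLXRβ plus one-copy LXRE reporter, endogenous RXR partnering. Sigmoidal fit of 10-point half-log curves (4 wells each) gave EC50; % efficacy versus maximal response of the propionamide reference agonist.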
For orientation: A reporter such as luciferase makes a cellular process visible.

Setting [1] is: CV-1 cells, relative to maximum response of high control N-(3-((4-fluorophenyl)-(naphthalene-2-sulfonyl)amino)propyl)-2,2-dimethylpropionamide.

`Cc1nc(-c2ccc3c(c2)OC(F)(F)O3)c(-c2cc(-c3cccc(S(C)(=O)=O)c3)ccc2-c2cc(C(=O)NCC(F)(F)F)nn2C)o1` [Example 111, 5-(3-(4-(2,2-difluorobenzo[d][1,3]dioxol-5-yl)-2-methyloxazol-5-yl)-3′-(methylsulfonyl)-[1,1′-biphenyl]-4-yl)-1-methyl-N-(2,2,2-trifluoroethyl)-1H-pyrazole-3-carboxamide]: the EC50 is 284 nM. Moreover, the Emax under setting [1] was 51%.

Consider `Cc1nc(-c2cc(-c3cccc(S(C)(=O)=O)c3)ccc2-n2ccc(C(F)(F)F)n2)c(-c2ccc(Cl)cc2)o1` [Example 401, 5-(4-chlorophenyl)-2-methyl-4-(3′-(methylsulfonyl)-4-(3-(trifluoromethyl)-1H-pyrazol-1-yl)biphenyl-3-yl)oxazole], for which the EC50 was 131 nM. In addition, under setting [1], the Emax was 76%.

In the case of `Cc1nc(-c2ccc(OC(F)F)c(F)c2)c(-c2cc(-c3cccc(S(C)(=O)=O)c3)ccc2-c2cc(C(F)(F)CO)nn2C)o1` [Example 76, 2-(5-(3-(4-(4-(difluoromethoxy)-3-fluorophenyl)-2-methyloxazol-5-yl)-3′-(methylsulfonyl)biphenyl-4-yl)-1-methyl-1H-pyrazol-3-yl)-2,2-difluoroethanol], the EC50 turned out to be 84 nM. In addition, the Emax under setting [1] is 88%.

With `Cc1nc(-c2cc(-c3cc(F)c(CO)c(S(C)(=O)=O)c3)ccc2-n2nc(C(F)(F)F)cc2C)c(-c2ccc3c(c2)OC(F)(F)O3)o1` [Example 389, (3′-(5-(2,2-difluorobenzo[d][1,3]dioxol-5-yl)-2-methyloxazol-4-yl)-3-fluoro-4′-(5-methyl-3-(trifluoromethyl)-1H-pyrazol-1-yl)-5-(methylsulfonyl)biphenyl-4-yl)methanol], the EC50 came out at 7 nM. Under setting [1], the Emax came to 84%.

Regarding `Cc1nc(-c2ccc(OC(F)(F)F)cc2)c(-c2cc(-c3cccc(C4(C(N)=O)CC4)c3)ccc2-n2nc(C(F)(F)F)cc2Cl)o1` [Example 381, 1-(4′-(5-chloro-3-(trifluoromethyl)-1H-pyrazol-1-yl)-3′-(2-methyl-4-(4-(trifluoromethoxy)phenyl)oxazol-5-yl)-[1,1′-biphenyl]-3-yl) cyclopropanecarboxamide], the EC50 was determined as 1080 nM. Besides, the Emax under setting [1] worked out at 61%.

`Cc1nc(-c2ccc3c(c2)OC(F)(F)O3)c(-c2cc(-c3cc(F)c(CO)c(S(C)(=O)=O)c3)ccc2-c2cc(C(F)(F)C(=O)N3CCOCC3)nn2C)o1` [Example 81, 2-(5-(3-(4-(2,2-difluorobenzo[d][1,3]dioxol-5-yl)-2-methyloxazol-5-yl)-3′-fluoro-4′-(hydroxymethyl)-5′-(methylsulfonyl)biphenyl-4-yl)-1-methyl-1H-pyrazol-3-yl)-2,2-difluoro-1-morpholinoethanone]: the half-maximal effective concentration (EC50) is 184 nM. Further, the Emax under setting [1] came out at 43%.

For the compound `Cc1nc(-c2ccc(OC(F)(F)F)cc2)c(-c2cc(-c3cc(F)c(CO)c(S(C)(=O)=O)c3)ccc2-n2ccc(COC(N)=O)n2)o1` [Example 375, (1-(3′-fluoro-4′-(hydroxymethyl)-3-(2-methyl-4-(4-(trifluoromethoxy)phenyl)oxazol-5-yl)-5′-(methylsulfonyl)-[1,1′-biphenyl]-4-yl)-1H-pyrazol-3-yl) methyl carbamate], the EC50 is 198 nM. Moreover, the Emax under setting [1] came to 62%.

`Cc1nc(-c2ccc(OC(F)(F)F)cc2)c(-c2cc(-c3cccc(S(C)(=O)=O)c3)ccc2-n2ccc(CO)n2)o1` [Example 321, (1-(3-(2-methyl-4-(4-(trifluoromethoxy)phenyl)oxazol-5-yl)-3′-(methylsulfonyl)biphenyl-4-yl)-1H-pyrazol-3-yl)methanol]: the EC50 is 1440 nM. Moreover, under setting [1], the Emax amounted to 40%.

Regarding `Cc1nc(-c2ccc(OC(F)(F)F)cc2)c(-c2cc(-c3cc(F)c(CO)c(S(C)(=O)=O)c3)ccc2-n2cc(Cl)c(C(C)(C)O)n2)o1` [Example 443], the EC50 came to 22 nM. In addition, the Emax under setting [1] was determined as 35%.

For the compound `Cc1nc(-c2cc(-c3cc(F)c(CO)c(S(C)(=O)=O)c3)ccc2-n2ccc(C(F)(F)F)n2)c(-c2ccc(Cl)c(OC(F)F)c2)o1` [Example 396, (3′-(5-(4-chloro-3-(difluoromethoxy)phenyl)-2-methyloxazol-4-yl)-3-fluoro-5-(methylsulfonyl)-4′-(3-(trifluoromethyl)-1H-pyrazol-1-yl)biphenyl-4-yl)methanol], the EC50 was 90 nM. Further, under setting [1], the Emax stood at 67%.

For the compound `Cc1nc(-c2ccc(OC(F)(F)F)cc2)c(-c2cc(-c3cc(F)c(CO)c(S(C)(=O)=O)c3)ccc2-n2ccc(CO)n2)o1` [Example 322, (3-fluoro-4′-(3-(hydroxymethyl)-1H-pyrazol-1-yl)-3′-(2-methyl-4-(4-(trifluoromethoxy)phenyl)oxazol-5-yl)-5-(methylsulfonyl)biphenyl-4-yl)methanol], the EC50 was 1110 nM. Also, the Emax under setting [1] came to 58%.

For `Cc1nc(-c2ccc3c(c2)OC(F)(F)O3)c(-c2cc(-c3cc(F)c(CO)c(S(C)(=O)=O)c3)ccc2-c2cc(C(F)(F)C(=O)NCC(N)=O)nn2C)o1` [Example 89, N-(2-amino-2-oxoethyl)-2-(5-(3-(4-(2,2-difluorobenzo[d][1,3]dioxol-5-yl)-2-methyloxazol-5-yl)-3′-fluoro-4′-(hydroxymethyl)-5′-(methylsulfonyl)biphenyl-4-yl)-1-methyl-1H-pyrazol-3-yl)-2,2-difluoroacetamide], the EC50 was 4780 nM. In addition, under setting [1], the Emax came to 37%.

On to `COCC(F)(F)c1cc(-c2ccc(-c3cc(F)c(CO)c(S(C)(=O)=O)c3)cc2-n2nncc2-c2ccc(OC(F)(F)F)cc2)n(C)n1` [Example 17, [4′-{3-[1,1-difluoro-2-(methyloxy)ethyl]-1-methyl-1H-pyrazol-5-yl}-3-fluoro-5-(methylsulfonyl)-3′-(5-{4-[(trifluoromethyl)oxy]phenyl}-1H-1,2,3-triazol-1-yl)biphenyl-4-yl]methanol], for which the EC50 was 61 nM. The Emax under setting [1] amounted to 96%.

Take `Cc1nc(-c2ccc3c(c2)OC(F)(F)O3)c(-c2cc(-c3cc(F)c(CO)c(S(C)(=O)=O)c3)ccc2-c2cc(C(=O)NC3CC3)nn2C)o1` [Example 108, N-cyclopropyl-5-(3-(4-(2,2-difluorobenzo[d][1,3]dioxol-5-yl)-2-methyloxazol-5-yl)-3′-fluoro-4′-(hydroxymethyl)-5′-(methylsulfonyl)-[1,1′-biphenyl]-4-yl)-1-methyl-1H-pyrazole-3-carboxamide]: the 50% effective concentration (EC50) was found to be 529 nM. Also, under setting [1], the Emax was found to be 30%.

In the case of `Cc1nc(-c2ccc(OC(F)(F)F)cc2)c(-c2cc(-c3cc(F)c(CO)c(S(C)(=O)=O)c3)ccc2-n2nc(C(F)(F)F)cc2C2CC2)o1` [Example 323, (4′-(5-cyclopropyl-3-(trifluoromethyl)-1H-pyrazol-1-yl)-3-fluoro-3′-(2-methyl-4-(4-(trifluoromethoxy)phenyl)oxazol-5-yl)-5-(methylsulfonyl)biphenyl-4-yl)methanol], the EC50 was found to be 948 nM. Moreover, the Emax under setting [1] turned out to be 48%.

Regarding `Cc1nc(-c2ccc3c(c2)OC(F)(F)O3)c(-c2cc(-c3cc(F)c(CO)c(S(C)(=O)=O)c3)ccc2-c2cc(C(F)(F)C(=O)NCC3CC3)nn2C)o1` [Example 87, N-(cyclopropylmethyl)-2-(5-(3-(4-(2,2-difluorobenzo[d][1,3]dioxol-5-yl)-2-methyloxazol-5-yl)-3′-fluoro-4′-(hydroxymethyl)-5′-(methylsulfonyl)biphenyl-4-yl)-1-methyl-1H-pyrazol-3-yl)-2,2-difluoroacetamide], the EC50 stood at 134 nM. In addition, under setting [1], the Emax was determined as 33%.

Turning to `Cc1nc(-c2ccc3c(c2)OC(F)(F)O3)c(-c2cc(-c3cc(F)c(CO)c(S(C)(=O)=O)c3)ccc2-c2cc(C(C)OC(N)=O)nn2C)o1` (stereo not shown) [Example 132, 1-(5-(3-(4-(2,2-difluorobenzo[d][1,3]dioxol-5-yl)-2-methyloxazol-5-yl)-3′-fluoro-4′-(hydroxymethyl)-5′-(methylsulfonyl)-[1,1′-biphenyl]-4-yl)-1-methyl-1H-pyrazol-3-yl)ethyl carbamate], the EC50 was found to be 157 nM. Further, under setting [1], the “LXRbeta % EFFICACY” value is 49%.

For orientation: EC50 means the concentration giving half of the maximal effect.

(Values after US9751869B2, “LXR modulators” (BRISTOL-MYERS SQUIBB COMPANY, priority 2013, dated 2017).)
